{"source": "patent US20190374554A1", "about": "“USE OF OXYGENATED CHOLESTEROL SULFATES (OCS) TO TREAT INFLAMMATORY SKIN DISEASE AND SKIN LESIONS” (Virginia Commonwealth University, priority 2016, published 2019)", "key": {"Hannover Wistar rats": {"system": "Hannover Wistar rats", "experiment": "Two-week subcutaneous (SC) injection study in rats", "assay_type": "in vivo", "experimental": "In a separate study, Hannover Wistar rats (n=12/sex/dose group) received daily SC injections of a solution of 30 mg/mL of 25HC3S sodium salt in vehicle (250 mg/mL hydroxypropyl-β-cyclodextrin in 10 mM sodium phosphate buffer in sterile water) for 2 weeks. Dose levels of 0 (vehicle), 15, 45 and 150 mg/kg of 25HC3S sodium salt were administered in dose volumes of 5.0, 0.5, 1.5 and 5.0 mL/kg. Following 14 days of dose administration, all rats were euthanized and necropsied"}, "Beagle dogs": {"system": "Beagle dogs", "experiment": "Two-week SC injection study in dogs", "assay_type": "in vivo", "experimental": "In a separate study, Beagle dogs (n=4/sex/dose group) received daily SC injections for 2 weeks. The solution that was tested included 30 mg/mL of 25HC3 S sodium salt in vehicle (250 mg/mL hydroxypropyl-β-cyclodextrin in 10 mM sodium phosphate buffer). Dose levels of 0 (vehicle), 3, 10 and 30 mg/kg of 25HC3S were administered in dose volumes of 1.0, 0.1, 0.33 and 1.0 mL/kg. Following 14 days of dose administration, all dogs were euthanized and necropsied."}, "[1]": {"system": "IMQ-induced psoriasis-like back skin and ear lesions", "experiment": "Imiquimod (IMQ)-induced psoriasis mouse model, skin scoring (erythema, scaling, thickness)", "assay_type": "in vivo, Balb/C mice", "details": "mice; intradermal injection into back lesion Days 1 and 4; vs vehicle (FIG. 2)", "experimental": "The subjects for the study were 40 male Balb/C mice (18-22 g). […] The backs of all mice were shaved for an area of 1.5 cm×2 cm.\nFormulation A was a clear solution of 25 HC3S sodium salt (30 mg/mL) in a solution vehicle (250 mg/mL hydroxypropyl betadex (beta cyclodextrin, 2-hydroxypropyl ether, a partially substituted poly(hydroxypropyl) ether of beta cyclodextrin) and 10 mM sodium phosphate buffer in sterile water). Vehicle was stored at 2-8° C. storage and placed at room temperature for 30 min. prior to mixing with powdered 25HC3S just prior to use. Dissolution of the 25HC3S in Vehicle A was rapid and appeared to be complete upon mixing.\nFormulation B was a milky suspension of 25HC3S sodium salt (25 mg/mL) in a suspension vehicle (30 mg/mL polyethylene glycol 3350, 3 mg/mL polysorbate 80, 7.5 mg/mL NaCl, and 10 mM sodium phosphate buffer in sterile water). The 25HC3S was milled using a Fluid Energy Model 00 Jet-O-Mizer™ to approximately a 5 microns average particle size (measured by a Malvern Mastersizer 2000 equipped with a hydro 2000S dispersion cell) prior to addition to the vehicle. […]\nMice were monitored for signs of distress and daily photos of the back lesions were taken. Erythema, scaling, and thickness of the back skin was scored daily on a scale from 0 to 4 by an independent scorer (blind), where 0=none; 1=slight; 2=moderate; 3=marked; and 4=very marked. […]"}, "[2]": {"experiment": "Drug solubility / drug loading in solvents and compositions", "assay_type": "physicochemical"}}, "data": [{"smiles": "C[C@H](CCCC(C)(C)O)[C@H]1CC[C@H]2[C@@H]3CC=C4C[C@@H](OS(=O)(=O)[O-])CC[C@]4(C)[C@H]3CC[C@]12C.[Na+]", "note": "[Formulation 25HC3S, 5-cholesten-3, 25-diol, 3-sulfate]", "values": [{"measurement": "higher mean liver weights compared to controls", "setting": "Hannover Wistar rats; male and female rats, 150 mg/kg daily SC, 2 weeks", "value": 10, "unit": "%"}, {"measurement": "lower mean serum cholesterol compared to vehicle controls", "setting": "Hannover Wistar rats; male rats, 150 mg/kg daily SC, after 2 weeks", "value": 22, "unit": "%"}, {"measurement": "Cytoplasmic vacuolation of the proximal tubules of the kidneys", "setting": "Hannover Wistar rats; rats, 150 mg/kg daily SC, 2 weeks, vs vehicle controls", "value": "severity was similar in vehicle control and rats"}, {"measurement": "collagen degeneration and hemorrhage at the injection sites", "setting": "Hannover Wistar rats; rats, daily SC 2 weeks, compared to vehicle (FIG. 1A)", "value": "tended to be lower"}, {"measurement": "alveolar macrophages in the lungs", "setting": "Hannover Wistar rats; rats, daily SC 2 weeks, seen in vehicle controls and drug-treated rats", "value": "minimal increase"}, {"measurement": "swelling at the site of injection", "setting": "Beagle dogs; daily SC 2 weeks, compared to vehicle only (FIG. 1C)", "value": "markedly decreased"}, {"measurement": "fibroplasia, hemorrhage, inflammation and necrosis in injection sites: incidence and severity", "setting": "Beagle dogs; daily SC 3, 10, 30 mg/kg, 2 weeks (FIG. 1B)", "value": "generally higher in vehicle controls compared to drug-treated dogs"}, {"measurement": "erythema (redness) of the back skin", "setting": "[1]", "value": "promotes reduction in erythema"}, {"measurement": "state of drug in the prepared compositions", "setting": "[2]; 6 wt % 25HC3S, compositions of Tables 31 and 32", "value": "all in solution"}, {"measurement": "maximum drug loading achieved", "setting": "[2]; Carbopol based creams or gels", "value": 1, "unit": "wt %"}, {"measurement": "drug solubility", "setting": "[2]; in EtOH", "value": "~3", "unit": "mg/mL"}, {"measurement": "drug solubility", "setting": "[2]; in PEG 400", "value": "~130", "unit": "mg/mL"}, {"measurement": "drug solubility", "setting": "[2]; in PG", "value": "~30", "unit": "mg/mL"}]}]}
